Source: publication PMC2568955, “Structures of SRP54 and SRP19, the Two Proteins that Organize the Ribonucleic Core of the Signal Recognition Particle from Pyrococcus furiosus” (PLoS ONE, 2008)

Biological target: T1, Pfu-SRP54 (Pyrococcus furiosus, UniProt Q8U070)
T1 construct: full-length, pET28b, thrombin-cleavable His6 tag removed, E. coli BL21(DE3)-Rosetta2; free of SRP RNA and SRP19; two monomers per asymmetric unit (non-crystallographic dimer); finger loop L346-I365 disordered
T1 sequence (Q8U070 1-443): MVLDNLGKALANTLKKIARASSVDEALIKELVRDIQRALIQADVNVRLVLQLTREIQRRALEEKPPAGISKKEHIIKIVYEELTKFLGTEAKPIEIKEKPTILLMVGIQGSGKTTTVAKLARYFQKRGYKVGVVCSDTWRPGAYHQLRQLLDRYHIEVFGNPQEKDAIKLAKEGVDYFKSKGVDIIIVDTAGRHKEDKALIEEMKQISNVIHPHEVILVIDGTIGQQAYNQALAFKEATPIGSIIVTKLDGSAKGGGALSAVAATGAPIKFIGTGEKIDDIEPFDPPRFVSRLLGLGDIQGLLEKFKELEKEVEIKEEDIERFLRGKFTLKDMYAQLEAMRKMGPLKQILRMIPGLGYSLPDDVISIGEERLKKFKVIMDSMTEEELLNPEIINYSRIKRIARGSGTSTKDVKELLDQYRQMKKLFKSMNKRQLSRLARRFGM
Test: X-ray crystal structure, […] Å
Format: binding
Conditions: co-crystallised with 10 mM GDP; 1.0-1.3 M lithium sulfate, 100 mM sodium acetate pH 5.0; room temperature; GTPase active site in G domain, no clear Mg ion

Which “X-ray crystal structure, 2.5 Å” value does the source give for `Nc1nc2c(ncn2[C@@H]2O[C@H](COP(=O)(O)OP(=O)(O)O)[C@@H](O)[C@H]2O)c(=O)[nH]1` [GDP] here?
Its value is “Pfu-SRP54 was co-crystallized in presence of GDP, and the nucleotide is clearly identified”.
